In a melting point compilation (Tetko et al.):

melting point [°C]	SMILES
240	Cc1ccc2nc(O)cc(C)c2c1
11 to 13	Cc1nccnc1C
220	O=[N+]([O-])c1ccc(-c2nnc3n2NC(c2ccc(Cl)cc2)S3)cc1 (stereo not given)
22	O=C(OCc1ccccc1)c1cccnc1
106	CCCCCCCCCCCCCC(=O)Oc1ccc(N=Cc2ccc(N(C)C)cc2)cc1
167	O=Cc1c(Cl)[nH]n(-c2ccccc2)c1=O
230	Oc1ccc(-c2nnc3n2NC(c2ccco2)S3)cc1 (stereo not given)
102 to 104	Cc1cscc1S(=O)(=O)c1ccc(Cl)cc1
103 to 104	Cc1nc(-c2ccc(CBr)cc2)no1
117 to 120	c1ccc2c(c1)OCCOCCOCCOc1ccccc1OCCO2
48	CCN(CC)C(=O)N1CCN(C)CC1
98 to 100	CCCc1ccc(NC(C)=O)cc1
210	CC(=O)c1ccc(C#N)c(S)n1
84 to 90	ON=C(CBr)c1ccc(F)cc1
297 to 300	Cc1cc(C)c(CS(=O)(=O)Cc2c(C)cc(C)cc2C)c(C)c1
146	CC(C)C(C)C=CC(C)C1CCC2C3=CC=C4CC(O)CCC4(C)C3=CCC21C (stereo not given)
190	CCCc1nn(C)c2c(=O)nc(-c3cc(S(=O)(=O)N4CCN(C)CC4)ccc3OCC)[nH]c12
151 to 156	COc1ccc(C2(C(=O)O)CCCC2)cc1
88 to 91	CN(C)C(=O)[C@@H]1OC(C)(C)O[C@H]1C(=O)N(C)C
148	O=C1c2c(O)cccc2C(C2OC(CO)C(O)C(O)C2O)c2cc(CO)cc(O)c21 (stereo not given)
154 to 155	O=C(O)C(F)(F)C(F)(F)C(F)(F)C(F)(F)C(F)(F)C(F)(F)C(F)(F)C(F)(F)C(F)(F)C(F)(F)C(F)(F)C(F)(F)C(F)(F)C(F)(F)C(F)(F)F
109	Cc1cc(C)n(CO)n1
60	CC(=O)C(C(C)=O)C(c1ccc(C)o1)c1ccc(C)o1
88	Cc1ccc(C(c2ccc(C)o2)c2cc(Br)cc(Br)c2O)o1

melting point [°C]	SMILES
156	N#Cc1c(O)cccc1F
192	O=[N+]([O-])c1ccc(C=Cc2ccc([N+](=O)[O-])cc2S(=O)(=O)Oc2ccccc2)c(S(=O)(=O)Oc2ccccc2)c1
15	CNc1ccccn1
143 to 147	Cc1nc(-c2ccccc2)c(CO)s1
149	OC1CC2CCC1C2 (stereo not given)
252 to 256	Cc1c(S(=O)(=O)c2ccc(Cl)cc2)csc1C(=O)O
115	COc1ccc2cnc(C)cc2c1
213 to 217	Cc1cc(C)nc(S)n1
156	c1ccc2c(c1)Nc1ccccc1O2
150	C/C=C/C1Nn2c(nnc2-c2ccc([N+](=O)[O-])cc2)S1 (stereo not given)
54 to 55	Brc1ccc2nccnc2c1
69	Cn1cc(C=O)c2ccccc21
152	O=C1c2ccccc2CC2C=CC=CC12 (stereo not given)
35 to 36	Cc1ccc2sccc2c1
163 to 168	OC1(c2ccc(Br)cc2)CCNCC1
99 to 101	O=C(NCN(CNC(=O)c1ccccc1)N(CNC(=O)c1ccccc1)CNC(=O)c1ccccc1)c1ccccc1
151	CN(C)c1cccc(C(=O)O)c1
230	O=C(Oc1cc(Cl)cc(Cl)c1)c1ccc(C(=O)Oc2cc(Cl)cc(Cl)c2)cc1
265 to 268	c1ccc2c(P(c3cccc4ccccc34)c3cccc4ccccc34)cccc2c1
189 to 193	Nc1cc(Cl)c([N+](=O)[O-])cc1N
36	C#CCCCCCCCCCCCCCCCCCC
137 to 138	NNC(=O)c1csc(-c2ccccc2)n1
51	Cc1cc(Br)ncc1I
84	N#CCS(=O)(=O)c1cccs1

melting point [°C]	SMILES
181 to 184	CC(=O)c1cc2cc3c4c(c2oc1=O)CCCN4CCC3
248 to 252	O=C1OC(=O)C23Cc4ccccc4CC12Cc1cc2c(cc1C3)CC2 (stereo not given)
186	O=[N+]([O-])c1ccc(/C=C/c2ccccc2O)c([N+](=O)[O-])c1
110	COc1ccc(C(F)(F)F)cc1C(=O)O
72 to 74	CSc1nn(CO)c(=S)s1
-37	CC(C)S(=O)(=O)O
35.5	Cc1ccc(O)cc1
130 to 132	CCOc1c(NN(C)C)c(=O)c1=O
-83	CCCCCC1CCCC1
-32	O=C1CCCCC1C1CCCCC1 (stereo not given)
147	NS(=O)(=O)c1cc(C(F)(F)F)ccc1C(F)(F)F
316	Nc1nn2c(-c3ccccc3)cc(=O)[nH]c2c1/N=N/c1c(Br)cc(Br)cc1Br
-4	C=CCOC(=O)OCCOCCOC(=O)OCC=C
86	Cc1ccccc1-c1cc2ccccc2c(=O)o1
132	CC1(C)OC(=O)C1(C)C
235 to 237	CC(=O)Nc1ccccc1CCCCc1ccccc1NC(C)=O
39 to 41	CCCCCCNC(=S)NCCCCCC
240	COc1ccc(C(=O)O)cc1I
-15.6	ClCCI
130	O=C(O)CNC(=O)c1ccc([N+](=O)[O-])cc1
163 to 165	O=S1(=O)CC(O)C(Cl)C1 (stereo not given)
231 to 232	CC(=C\OC(=O)c1ccccc1)/C(C)=N/OC(=O)c1ccccc1
127	CCOC(=O)C(=O)C(C#N)c1ccccc1 (stereo not given)
300	O=C(O)[C@@H]1Cc2ccccc2CN1

melting point [°C]	SMILES
78	CC(=O)CC(=O)c1ccc2ccccc2c1
68	CC(C)(C)NCC(O)COc1ccccc1C1CCCC1 (stereo not given)
-10	CC1=CCC(C(C)C)=CC1
53.5	CCCCCCCCCCCCCCCc1cccc(O)c1
188	Cc1c(F)ccc(C(=O)O)c1Cl
83	O=C(C=Cc1ccc(OCCCl)cc1)c1ccc(OCCCl)cc1
196 to 198	Clc1ccc(C2Nn3c(nnc3-c3ccccc3)S2)cc1 (stereo not given)
98	CCOc1ccc(-c2nnc3n2NC(c2ccc([N+](=O)[O-])cc2)S3)cc1 (stereo not given)
183	O=C(O)c1c(O)ccc(F)c1F
248	CN(C)CCC=C1c2ccccc2COc2ccc(CC(=O)O)cc21
182	O=[N+]([O-])c1cc(-c2ccc(O)cc2)ccc1O
-1	CCC=C(c1ccccc1)c1ccccc1
179	NC(=O)c1cc([N+](=O)[O-])ccc1Cl
198	C(C=C(c1ccccc1)c1ccccc1)=C(c1ccccc1)c1ccccc1
143 to 149	O=C1c2ccccc2-c2ccc(Br)cc21
131 to 132	Cc1nc(-c2ccc(CO)cc2)no1
68	O=C(c1ccco1)N1CCNCC1
66 to 68	Cc1noc(-c2ccccc2)c1I
145 to 156	Cc1ccc(OCC(=O)NN)c2c1CCC2
67	Cc1cc(C)c(N)c([N+](=O)[O-])c1
186	O=C(O)c1cccc(-c2ccccc2)c1O
340	O=C(C=Nc1ccccc1)c1cc(C(=O)C=Nc2ccccc2)cc(C(=O)C=Nc2ccccc2)c1
210 to 211	CC1(C)OC(C)(C(O)(c2cccc3ccccc23)c2cccc3ccccc23)CCC1C(=O)O (stereo not given)
188 to 190	CCc1n[nH]c2cc(-c3ccccc3)nn12

melting point [°C]	SMILES
83 to 84	CCOC(=O)CCC(C)C1CCC2C3C=CC4CC(OC(C)=O)CCC4(C)C3CC(OC(C)=O)C12C (stereo not given)
337	N#Cc1c2ccccc2c(C#N)c2ccccc12
104 to 105	C/C(CCc1oc2ccccc2c1-c1ccc(C)o1)=N/O
185	CCC(C)OC(=O)C1=C(C)NC(=O)NC1c1ccco1 (stereo not given)
188 to 193	N#CCCNCC(=O)O
165 to 166	O=C(NCOC(=O)c1ccc(O)cc1)c1ccccc1
140	Cc1ccc([C@H]2O[C@@H](c3ccc(C)cc3)[C@H](C)C(=O)[C@@H]2C)cc1
109 to 110	CC(=O)c1cc(F)cc(F)c1O
238	Cc1nn(C)c2c(N)ncnc12
179	Brc1cnc2[nH]ccc2c1
180 to 182	COC(=O)c1ccc(NS(=O)(=O)c2ccc(C)cc2)c(NS(=O)(=O)c2ccc(C)cc2)c1
114	COc1ccccc1OCCNCC(O)COc1cccc2[nH]c3ccccc3c12 (stereo not given)
194	CS(=O)(=O)c1ccc(C(=O)O)c(Cl)c1
283	Cc1noc2c1c(=O)n(-c1ccccc1)c1ccccc21
78 to 80	COC(=O)c1cc(Cl)cc(C(=O)OC)c1
151 to 160	CC(C(C#N)C(N)=O)C(C#N)C(N)=O (stereo not given)
221 to 223	NC(=O)c1ccc(CC(=O)c2ccc(Cl)cc2)cc1
201	O=Cc1cc(I)c(O)c(I)c1
137	CC(C)(C)c1ccc(-c2nnc(-c3ccc(-c4ccccc4)cc3)o2)cc1
152 to 155	Cc1cc2cc(N)ccc2[nH]1
269 to 271	ON=C1CCCc2nnc3c(c21)CCCC3
135	CC(=O)Nc1ccccc1N

SMILES	melting point [°C]
C#CC(C)(O)CC (stereo not given)	30.5
CC(CN1CCOCC1)C(C(=O)N1CCCC1)(c1ccccc1)c1ccccc1 (stereo not given)	180
CNC(=O)Oc1ccc2c(c1)C1(C)CCN(C)C1N2C (stereo not given)	106
CC(C(O)c1ccccc1)N(C)C (stereo not given)	87.5
O=C(O)C(F)C(F)(F)F (stereo not given)	28.2 to 29.2
Cc1occc1C(=O)Nc1ccccc1	110
CC1CCC2(NC1)OC1CC3C4CCC5CC(O)CCC5(C)C4CCC3(C)C1C2C (stereo not given)	210
